# Experimental data reported in patent US8192962B2, “Processes for detecting toxic substances” (Daikin Industries, Ltd., priority 2001, dated 2012).
# Tested on: Stress protein genes
# Test: DNA chip mRNA expression in yeast, stress protein genes (Table 6)
# Assay type: cell-based, Saccharomyces cerevisiae S288C
# Procedure, shortened: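 In this screen, yeast in logarithmic growth are challenged for two hours with a toxic substance at a non-lethal inhibitory concentration. Their mRNA, converted to Cy3- or Cy5-labeled cDNA, hybridizes at 65° C. to a chip spanning every yeast gene, and expression is expressed as a ratio to untreated cells.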
substance,measurement,setting,value
manganese ethylenebis(dithiocarbamate) [(8)],The level of expressed mRNA in the presence of chemical substance/The level of expressed mRNA in the absence of chemical substance,yeast gene YAL005C,0.9
same,The level of expressed mRNA in the presence of chemical substance/The level of expressed mRNA in the absence of chemical substance,yeast gene YAL015C,1.1
same,The level of expressed mRNA in the presence of chemical substance/The level of expressed mRNA in the absence of chemical substance,yeast gene YBL075C,0.8
same,The level of expressed mRNA in the presence of chemical substance/The level of expressed mRNA in the absence of chemical substance,yeast gene YBL093C,1.6
same,The level of expressed mRNA in the presence of chemical substance/The level of expressed mRNA in the absence of chemical substance,yeast gene YBR044C,1.1
same,The level of expressed mRNA in the presence of chemical substance/The level of expressed mRNA in the absence of chemical substance,yeast gene YBR054W,2.1
same,The level of expressed mRNA in the presence of chemical substance/The level of expressed mRNA in the absence of chemical substance,yeast gene YBR067C,1.1
same,The level of expressed mRNA in the presence of chemical substance/The level of expressed mRNA in the absence of chemical substance,yeast gene YBR072W,2.1
same,The level of expressed mRNA in the presence of chemical substance/The level of expressed mRNA in the absence of chemical substance,yeast gene YBR126C,0.6
same,The level of expressed mRNA in the presence of chemical substance/The level of expressed mRNA in the absence of chemical substance,yeast gene YBR169C,0.9
same,The level of expressed mRNA in the presence of chemical substance/The level of expressed mRNA in the absence of chemical substance,yeast gene YCL035C,1.4
same,The level of expressed mRNA in the presence of chemical substance/The level of expressed mRNA in the absence of chemical substance,yeast gene YCR021C,0.8
same,The level of expressed mRNA in the presence of chemical substance/The level of expressed mRNA in the absence of chemical substance,yeast gene YCR060W,1.2
same,The level of expressed mRNA in the presence of chemical substance/The level of expressed mRNA in the absence of chemical substance,yeast gene YCR083W,1.5
same,The level of expressed mRNA in the presence of chemical substance/The level of expressed mRNA in the absence of chemical substance,yeast gene YDL022W,0.8
same,The level of expressed mRNA in the presence of chemical substance/The level of expressed mRNA in the absence of chemical substance,yeast gene YDL025C,1.1
same,The level of expressed mRNA in the presence of chemical substance/The level of expressed mRNA in the absence of chemical substance,yeast gene YDR033W,1.0
same,The level of expressed mRNA in the presence of chemical substance/The level of expressed mRNA in the absence of chemical substance,yeast gene YDR077W,0.8
same,The level of expressed mRNA in the presence of chemical substance/The level of expressed mRNA in the absence of chemical substance,yeast gene YDR098C,1.2
same,The level of expressed mRNA in the presence of chemical substance/The level of expressed mRNA in the absence of chemical substance,yeast gene YDR155C,1.4
same,The level of expressed mRNA in the presence of chemical substance/The level of expressed mRNA in the absence of chemical substance,yeast gene YDR258C,1.9
same,The level of expressed mRNA in the presence of chemical substance/The level of expressed mRNA in the absence of chemical substance,yeast gene YDR293C,0.6
same,The level of expressed mRNA in the presence of chemical substance/The level of expressed mRNA in the absence of chemical substance,yeast gene YDR436W,0.9
same,The level of expressed mRNA in the presence of chemical substance/The level of expressed mRNA in the absence of chemical substance,yeast gene YDR513W,1.6
same,The level of expressed mRNA in the presence of chemical substance/The level of expressed mRNA in the absence of chemical substance,yeast gene YDR519W,1.4
same,The level of expressed mRNA in the presence of chemical substance/The level of expressed mRNA in the absence of chemical substance,yeast gene YEL030W,0.7
same,The level of expressed mRNA in the presence of chemical substance/The level of expressed mRNA in the absence of chemical substance,yeast gene YEL039C,1.1
same,The level of expressed mRNA in the presence of chemical substance/The level of expressed mRNA in the absence of chemical substance,yeast gene YER042W,1.7
same,The level of expressed mRNA in the presence of chemical substance/The level of expressed mRNA in the absence of chemical substance,yeast gene YER057C,1.0
same,The level of expressed mRNA in the presence of chemical substance/The level of expressed mRNA in the absence of chemical substance,yeast gene YER103W,0.9
same,The level of expressed mRNA in the presence of chemical substance/The level of expressed mRNA in the absence of chemical substance,yeast gene YER125W,0.7
same,The level of expressed mRNA in the presence of chemical substance/The level of expressed mRNA in the absence of chemical substance,yeast gene YFL014W,3.4
same,The level of expressed mRNA in the presence of chemical substance/The level of expressed mRNA in the absence of chemical substance,yeast gene YFL016C,0.7
same,The level of expressed mRNA in the presence of chemical substance/The level of expressed mRNA in the absence of chemical substance,yeast gene YFL020C,0.7
same,The level of expressed mRNA in the presence of chemical substance/The level of expressed mRNA in the absence of chemical substance,yeast gene YFR052W,1.5
same,The level of expressed mRNA in the presence of chemical substance/The level of expressed mRNA in the absence of chemical substance,yeast gene YGL073W,0.8
same,The level of expressed mRNA in the presence of chemical substance/The level of expressed mRNA in the absence of chemical substance,yeast gene YGL115W,1.0
same,The level of expressed mRNA in the presence of chemical substance/The level of expressed mRNA in the absence of chemical substance,yeast gene YGL181W,1.2
same,The level of expressed mRNA in the presence of chemical substance/The level of expressed mRNA in the absence of chemical substance,yeast gene YGR088W,0.8
same,The level of expressed mRNA in the presence of chemical substance/The level of expressed mRNA in the absence of chemical substance,yeast gene YHL028W,0.4
same,The level of expressed mRNA in the presence of chemical substance/The level of expressed mRNA in the absence of chemical substance,yeast gene YHL046C,1.0
same,The level of expressed mRNA in the presence of chemical substance/The level of expressed mRNA in the absence of chemical substance,yeast gene YHR030C,1.5
same,The level of expressed mRNA in the presence of chemical substance/The level of expressed mRNA in the absence of chemical substance,yeast gene YHR057C,1.0
same,The level of expressed mRNA in the presence of chemical substance/The level of expressed mRNA in the absence of chemical substance,yeast gene YHR104W,1.1
same,The level of expressed mRNA in the presence of chemical substance/The level of expressed mRNA in the absence of chemical substance,yeast gene YIL011W,0.7
same,The level of expressed mRNA in the presence of chemical substance/The level of expressed mRNA in the absence of chemical substance,yeast gene YIL033C,0.7
same,The level of expressed mRNA in the presence of chemical substance/The level of expressed mRNA in the absence of chemical substance,yeast gene YIR037W,1.3
same,The level of expressed mRNA in the presence of chemical substance/The level of expressed mRNA in the absence of chemical substance,yeast gene YIR038C,1.3
same,The level of expressed mRNA in the presence of chemical substance/The level of expressed mRNA in the absence of chemical substance,yeast gene YJL128C,0.9
same,The level of expressed mRNA in the presence of chemical substance/The level of expressed mRNA in the absence of chemical substance,yeast gene YJL158C,0.7
same,The level of expressed mRNA in the presence of chemical substance/The level of expressed mRNA in the absence of chemical substance,yeast gene YJL159W,0.8
same,The level of expressed mRNA in the presence of chemical substance/The level of expressed mRNA in the absence of chemical substance,yeast gene YJL165C,0.7
same,The level of expressed mRNA in the presence of chemical substance/The level of expressed mRNA in the absence of chemical substance,yeast gene YJR045C,0.8
same,The level of expressed mRNA in the presence of chemical substance/The level of expressed mRNA in the absence of chemical substance,yeast gene YJR090C,0.8
same,The level of expressed mRNA in the presence of chemical substance/The level of expressed mRNA in the absence of chemical substance,yeast gene YKL161C,1.9
same,The level of expressed mRNA in the presence of chemical substance/The level of expressed mRNA in the absence of chemical substance,yeast gene YKL163W,0.8
same,The level of expressed mRNA in the presence of chemical substance/The level of expressed mRNA in the absence of chemical substance,yeast gene YKL164C,0.8
same,The level of expressed mRNA in the presence of chemical substance/The level of expressed mRNA in the absence of chemical substance,yeast gene YKL210W,0.9
same,The level of expressed mRNA in the presence of chemical substance/The level of expressed mRNA in the absence of chemical substance,yeast gene YKR053C,0.9
same,The level of expressed mRNA in the presence of chemical substance/The level of expressed mRNA in the absence of chemical substance,yeast gene YLL024C,0.7
same,The level of expressed mRNA in the presence of chemical substance/The level of expressed mRNA in the absence of chemical substance,yeast gene YLL026W,1.4
same,The level of expressed mRNA in the presence of chemical substance/The level of expressed mRNA in the absence of chemical substance,yeast gene YLL039C,1.1
same,The level of expressed mRNA in the presence of chemical substance/The level of expressed mRNA in the absence of chemical substance,yeast gene YLL060C,5.8
same,The level of expressed mRNA in the presence of chemical substance/The level of expressed mRNA in the absence of chemical substance,yeast gene YLR006C,0.9
same,The level of expressed mRNA in the presence of chemical substance/The level of expressed mRNA in the absence of chemical substance,yeast gene YLR109W,0.9
same,The level of expressed mRNA in the presence of chemical substance/The level of expressed mRNA in the absence of chemical substance,yeast gene YLR259C,0.8
same,The level of expressed mRNA in the presence of chemical substance/The level of expressed mRNA in the absence of chemical substance,yeast gene YML007W,1.9
same,The level of expressed mRNA in the presence of chemical substance/The level of expressed mRNA in the absence of chemical substance,yeast gene YML070W,1.3
same,The level of expressed mRNA in the presence of chemical substance/The level of expressed mRNA in the absence of chemical substance,yeast gene YMR021C,1.3
same,The level of expressed mRNA in the presence of chemical substance/The level of expressed mRNA in the absence of chemical substance,yeast gene YMR173W,2.3
same,The level of expressed mRNA in the presence of chemical substance/The level of expressed mRNA in the absence of chemical substance,yeast gene YMR186W,0.8
same,The level of expressed mRNA in the presence of chemical substance/The level of expressed mRNA in the absence of chemical substance,yeast gene YNL064C,1.4
same,The level of expressed mRNA in the presence of chemical substance/The level of expressed mRNA in the absence of chemical substance,yeast gene YNL160W,1.2
same,The level of expressed mRNA in the presence of chemical substance/The level of expressed mRNA in the absence of chemical substance,yeast gene YNL241C,0.9
same,The level of expressed mRNA in the presence of chemical substance/The level of expressed mRNA in the absence of chemical substance,yeast gene YNR076W,1.0
same,The level of expressed mRNA in the presence of chemical substance/The level of expressed mRNA in the absence of chemical substance,yeast gene YOL064C,1.0
same,The level of expressed mRNA in the presence of chemical substance/The level of expressed mRNA in the absence of chemical substance,yeast gene YOL161C,0.8
same,The level of expressed mRNA in the presence of chemical substance/The level of expressed mRNA in the absence of chemical substance,yeast gene YOR008C,0.8
same,The level of expressed mRNA in the presence of chemical substance/The level of expressed mRNA in the absence of chemical substance,yeast gene YOR009W,0.7
same,The level of expressed mRNA in the presence of chemical substance/The level of expressed mRNA in the absence of chemical substance,yeast gene YOR010C,0.5
same,The level of expressed mRNA in the presence of chemical substance/The level of expressed mRNA in the absence of chemical substance,yeast gene YOR027W,0.9
same,The level of expressed mRNA in the presence of chemical substance/The level of expressed mRNA in the absence of chemical substance,yeast gene YOR208W,1.0
same,The level of expressed mRNA in the presence of chemical substance/The level of expressed mRNA in the absence of chemical substance,yeast gene YPL059W,1.4
same,The level of expressed mRNA in the presence of chemical substance/The level of expressed mRNA in the absence of chemical substance,yeast gene YPL106C,1.2
same,The level of expressed mRNA in the presence of chemical substance/The level of expressed mRNA in the absence of chemical substance,yeast gene YPL140C,1.1
same,The level of expressed mRNA in the presence of chemical substance/The level of expressed mRNA in the absence of chemical substance,yeast gene YPL194W,1.3
same,The level of expressed mRNA in the presence of chemical substance/The level of expressed mRNA in the absence of chemical substance,yeast gene YPL223C,1.2
same,The level of expressed mRNA in the presence of chemical substance/The level of expressed mRNA in the absence of chemical substance,yeast gene YPL240C,1.2
same,The level of expressed mRNA in the presence of chemical substance/The level of expressed mRNA in the absence of chemical substance,yeast gene YPR005C,1.2
same,The level of expressed mRNA in the presence of chemical substance/The level of expressed mRNA in the absence of chemical substance,yeast gene YPR026W,1.0
